# Results from paper PMC11879280, “Antimicrobial activity of peptoids against Metallo-β-lactamase-producing Klebsiella pneumoniae, Acinetobacter baumannii, Pseudomonas aeruginosa, and other WHO priority pathogens, including Candida auris” (Journal of Applied Microbiology, 2025).
# Where two headings read alike, the source gives them in different places. Square brackets hold non-standard residues; d marks the D form. Peptide text beside a SMILES is read from it. Nspe = C[C@H](NCC(=O)O)c1ccccc1; NDecylGly = CCCCCCCCCCNCC(=O)O; Nlys = NCCCCNCC(=O)O
# Experiments:
# [1] = test system: ESKAPEE pathogens (all bacteria); assay: Geometric mean MIC, therapeutic index and selectivity ratio, all bacteria; type: cell-based; details: across the 23 ESKAPEE strains
# Procedure: Briefly, bacteria were suspended in cation-adjusted Mueller–Hinton broth (CAMHB; Oxoid, UK) for antibiotics, or MHB (Oxoid, UK) for peptidomimetics to obtain 5 × 10^5 colony forming unit (CFU) ml^−1. […] Positive controls contained only microbes, and blanks contained only media. Microbial suspensions (100 µl) were added to wells, plates wrapped, and incubated at 37°C, 120 rpm for 16–20 h. After incubation, suspensions were removed, log10 diluted, and plated on Trypticase Soya Agar with phosphatidylcholine and Tween 80 to determine minimum bactericidal or fungicidal concentration (MBC or MFC). […] Geometric mean MIC of the peptoids were calculated to evaluate the broad overview of antimicrobial activity across the pathogens.
# The therapeutic indices (TIs) of the compounds were calculated with the use of following formula: […]
# [2] = test system: Enteroc. faecalis NCTC 13 379
# Method in brief: (§1)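 Incubation 37°C, 120 rpm, 16–20 h, starting from 5 × 10^5 CFU/ml in MHB (peptidomimetics) or cation-adjusted MHB (antibiotics). Bactericidal/fungicidal endpoints came from log10-diluted wells plated on Trypticase Soya Agar containing phosphatidylcholine and Tween 80; MICs also summarised as geometric means.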
# [3] = test system: A. baumannii ATCC 19 606
# Method in brief: as §1
# [4] = test system: A. baumannii 006
# Method in brief: as §1
# [5] = test system: E. coli 0011
# Method in brief: as §1
# [6] = test system: S. aureus 117
# Method in brief: as §1
# [7] = test system: E. coli 005
# Method in brief: as §1
# [8] = test system: P. aeruginosa AR-1270
# Method in brief: as §1
# [9] = test system: En. cloacae 005
# Method in brief: as §1
# [10] = test system: A. baumannii 008
# Method in brief: as §1
# [11] = test system: En. cloacae 003
# Method in brief: as §1
# [12] = test system: E. coli 0015
# Method in brief: as §1
# [13] = test system: E. coli 0010
# Method in brief: as §1
# [14] = test system: K. pneumoniae JIE2709
# Method in brief: as §1
# [15] = test system: P. aeruginosa 216
# Method in brief: as §1
# [16] = test system: S. aureus 04
# Method in brief: as §1
# [17] = test system: K. pneumoniae JIE2713
# Method in brief: as §1
# [18] = test system: S. aureus 105
# Method in brief: as §1
# [19] = test system: K. pneumoniae JIE4212
# Method in brief: as §1
# [20] = test system: A. baumannii 007
# Method in brief: as §1
# [21] = test system: S. aureus 38
# Method in brief: as §1
# [22] = test system: A. baumannii 005
# Method in brief: as §1
# [23] = test system: P. aeruginosa 33
# Method in brief: as §1
# [24] = test system: En. cloacae 001
# Method in brief: as §1
smiles,measurement,setting,value
CCCCCCCCCCNCC(=O)N(CCCCN)CC(=O)N(CC(=O)N(CC(=O)N(CCCCN)CC(=O)N(CC(=O)N(CC(N)=O)[C@@H](C)c1ccccc1)[C@@H](C)c1ccccc1)[C@@H](C)c1ccccc1)[C@@H](C)c1ccccc1 [TM8] (H-[NDecylGly][Nlys][Nspe][Nspe][Nlys][Nspe][Nspe]-NH2),"Geometric mean MIC, all bacteria",[1],7.3 µg/mL
same,"Geometric mean MIC, all bacteria",[1]; value in brackets,6.6 µM
same,MIC of peptidomimetics,"[2]; Enteroc. faecalis NCTC 13 379, MHB (melimine/Mel4 with 0.2% BSA, 0.01% acetic acid), mean MIC",7.8 µg/mL
same,MIC of peptidomimetics,[2]; NCTC 13,7.0 µM
same,MIC of peptidomimetics,"[3]; A. baumannii ATCC 19 606, MHB (melimine/Mel4 with 0.2% BSA, 0.01% acetic acid), mean MIC",3.9 µg/mL
same,MIC of peptidomimetics,[3]; ATCC 19,3.5 µM
same,MIC of peptidomimetics,[4]; 006,3.5 µM
same,MIC of peptidomimetics,"[4]; A. baumannii 006, MHB (melimine/Mel4 with 0.2% BSA, 0.01% acetic acid), mean MIC",3.9 µg/mL
same,MIC of peptidomimetics,[5]; 0011,14.0 µM
same,MIC of peptidomimetics,"[5]; E. coli 0011, MHB (melimine/Mel4 with 0.2% BSA, 0.01% acetic acid), mean MIC",15.6 µg/mL
same,MIC of peptidomimetics,[6]; 117,3.5 µM
same,MIC of peptidomimetics,"[6]; S. aureus 117, MHB (melimine/Mel4 with 0.2% BSA, 0.01% acetic acid), mean MIC",3.9 µg/mL
same,MIC of peptidomimetics,[7]; 005,7.0 µM
same,MIC of peptidomimetics,"[7]; E. coli 005, MHB (melimine/Mel4 with 0.2% BSA, 0.01% acetic acid), mean MIC",7.8 µg/mL
same,MIC of peptidomimetics,[8]; AR-1270,14.0 µM
same,MIC of peptidomimetics,"[8]; P. aeruginosa AR-1270, MHB (melimine/Mel4 with 0.2% BSA, 0.01% acetic acid), mean MIC",15.6 µg/mL
same,MIC of peptidomimetics,[9],14.0 µM
same,MIC of peptidomimetics,"[9]; En. cloacae 005, MHB (melimine/Mel4 with 0.2% BSA, 0.01% acetic acid), mean MIC",15.6 µg/mL
same,MIC of peptidomimetics,[10]; 008,7.0 µM
same,MIC of peptidomimetics,"[10]; A. baumannii 008, MHB (melimine/Mel4 with 0.2% BSA, 0.01% acetic acid), mean MIC",7.8 µg/mL
same,MIC of peptidomimetics,[11],7.0 µM
same,MIC of peptidomimetics,"[11]; En. cloacae 003, MHB (melimine/Mel4 with 0.2% BSA, 0.01% acetic acid), mean MIC",7.8 µg/mL
same,MIC of peptidomimetics,[12]; 0015,7.0 µM
same,MIC of peptidomimetics,"[12]; E. coli 0015, MHB (melimine/Mel4 with 0.2% BSA, 0.01% acetic acid), mean MIC",7.8 µg/mL
same,MIC of peptidomimetics,[13]; 0010,14.0 µM
same,MIC of peptidomimetics,"[13]; E. coli 0010, MHB (melimine/Mel4 with 0.2% BSA, 0.01% acetic acid), mean MIC",15.6 µg/mL
same,MIC of peptidomimetics,[14]; JIE2709,14.0 µM
same,MIC of peptidomimetics,"[14]; K. pneumoniae JIE2709, MHB (melimine/Mel4 with 0.2% BSA, 0.01% acetic acid), mean MIC",15.6 µg/mL
same,MIC of peptidomimetics,[15]; 216,7.0 µM
same,MIC of peptidomimetics,"[15]; P. aeruginosa 216, MHB (melimine/Mel4 with 0.2% BSA, 0.01% acetic acid), mean MIC",7.8 µg/mL
same,MIC of peptidomimetics,[16]; 04,3.5 µM
same,MIC of peptidomimetics,"[16]; S. aureus 004, MHB (melimine/Mel4 with 0.2% BSA, 0.01% acetic acid), mean MIC",3.9 µg/mL
same,MIC of peptidomimetics,[17]; JIE2713,14.0 µM
same,MIC of peptidomimetics,"[17]; K. pneumoniae JIE2713, MHB (melimine/Mel4 with 0.2% BSA, 0.01% acetic acid), mean MIC",15.6 µg/mL
same,MIC of peptidomimetics,[18]; 105,3.5 µM
same,MIC of peptidomimetics,"[18]; S. aureus 105, MHB (melimine/Mel4 with 0.2% BSA, 0.01% acetic acid), mean MIC",3.9 µg/mL
same,MIC of peptidomimetics,[19]; JIE4212,7.0 µM
same,MIC of peptidomimetics,"[19]; K. pneumoniae JIE4212, MHB (melimine/Mel4 with 0.2% BSA, 0.01% acetic acid), mean MIC",7.8 µg/mL
same,MIC of peptidomimetics,[20]; 007,3.5 µM
same,MIC of peptidomimetics,"[20]; A. baumannii 007, MHB (melimine/Mel4 with 0.2% BSA, 0.01% acetic acid), mean MIC",3.9 µg/mL
same,MIC of peptidomimetics,[21]; 38,3.5 µM
same,MIC of peptidomimetics,"[21]; S. aureus 38, MHB (melimine/Mel4 with 0.2% BSA, 0.01% acetic acid), mean MIC",3.9 µg/mL
same,MIC of peptidomimetics,[22]; 005,7.0 µM
same,MIC of peptidomimetics,"[22]; A. baumannii 005, MHB (melimine/Mel4 with 0.2% BSA, 0.01% acetic acid), mean MIC",7.8 µg/mL
same,MIC of peptidomimetics,[23]; 33,3.5 µM
same,MIC of peptidomimetics,"[23]; P. aeruginosa 33, MHB (melimine/Mel4 with 0.2% BSA, 0.01% acetic acid), mean MIC",3.9 µg/mL
same,MIC of peptidomimetics,[24],7.0 µM
same,MIC of peptidomimetics,"[24]; En. cloacae 001, MHB (melimine/Mel4 with 0.2% BSA, 0.01% acetic acid), mean MIC",7.8 µg/mL
